Starred links: 1 amine or outer side, 2 acyl side, 3 side chain; linkers in the order of their positions; H or OH if unused. Positions of bridges follow the written chain, without caps; N, C: chain ends. Non-standard residues stand in square brackets, D forms with d. Residues, ends and D or L forms follow the SMILES beside them. ξ: configuration not given here. *: point of attachment. Trp(1-CH2COOH) = N[C@@H](Cc1cn(CC(=O)O)c2ccccc12)C(=O)O; X9 = O=C(O)CCCCCCCCCCCCCCCCC(=O)N[C@@H](CCN*)C(=O)O; X5 = O=C(O)CCCCCCCCCCCCCCCCC(=O)NCCCOCCOCCOCCCN*; C16 diacid = O=C(O)CCCCCCCCCCCCCCC(=O)*; βAsp = O=C(O)[C@H](CC(=O)[*:2])N[*:1]; NH(CH2)12COOH = O=C(O)CCCCCCCCCCCCN*; PEG6 = NCCOCCOCCOCCOCCOCCOCCC(=O)O; Hyp = O=C(O)[C@@H]1C[C@@H](O)CN1; Myristoyl = CCCCCCCCCCCCCC(=O)*; NMeNle = CCCC[C@H](NC)C(=O)O; Pip = O=C(O)[C@@H]1CCCCN1; NMeA = CN[C@@H](C)C(=O)O; Pra = C#CC[C@H](N)C(=O)O; Aun = NCCCCCCCCCCC(=O)O; Dab = NCC[C@H](N)C(=O)O; Dap = NC[C@H](N)C(=O)O; ξC = NC(CS)C(=O)O; βAla = NCCC(=O)O

T1 sequence (Q9NZQ7 with tags, fused parts or gaps): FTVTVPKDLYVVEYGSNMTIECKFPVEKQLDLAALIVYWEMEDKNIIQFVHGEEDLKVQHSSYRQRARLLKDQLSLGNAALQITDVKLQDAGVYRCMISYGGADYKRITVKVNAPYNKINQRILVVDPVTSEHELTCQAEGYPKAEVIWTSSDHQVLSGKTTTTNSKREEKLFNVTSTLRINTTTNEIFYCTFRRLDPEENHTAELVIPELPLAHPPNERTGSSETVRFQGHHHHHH

One test has as its target T1, PD-L1 (Homo sapiens, UniProt Q9NZQ7).
T1 construct: hPDL1(19-239)-TVMV-His; made in house; host or cells: HEK293T
As to the kind of experiment: PD-1/PD-L1 Homogenous Time-Resolved Fluorescence (HTRF) binding assay (PD-1-Ig/PD-L1-His). Conditions: inhibition of PD-1-Ig binding to PD-L1-TVMV-His; value given as number; read-out: HTRF IC50. The essentials: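 HTRF competition in dPBS with 0.1% BSA and 0.05% Tween-20: 20 nM PD-1-Ig added after 15 min compound pre-incubation with 10 nM PD-L1-His, then another 15 min. Signal (665/620 nm) after 30 min with APC anti-His (20 nM) and Eu anti-Ig (1 nM).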
For orientation: In TR-FRET formats the signal depends on donor and acceptor labels being close together.
As a reminder, the IC50 is the concentration at which inhibition is half-maximal. As for `CCCC[C@H]1C(=O)N(C)[C@@H](CCCC)C(=O)N[C@@H](CC(C)C)C(=O)N[C@H](C(=O)NCCCOCCOCCOCCCNC(=O)CCCCCCCCCCCCCCCCC(=O)O)CSCC(=O)N[C@@H](Cc2ccc(O)cc2)C(=O)N(C)[C@@H](C)C(=O)N[C@@H](CC(N)=O)C(=O)N2CCC[C@H]2C(=O)N[C@@H](CN)C(=O)N[C@@H](CCC(N)=O)C(=O)N2C[C@H](O)C[C@H]2C(=O)N[C@@H](Cc2c[nH]c3ccccc23)C(=O)N[C@@H](CO)C(=O)N[C@@H](Cc2cn(CC(=O)O)c3ccccc23)C(=O)N1C` [Example 11133] ({CH2CO}-Y[NMeA]NP[Dap]Q[Hyp]WS[Trp(1-CH2COOH)][NMeNle][NMeNle]LC-X5; thioether N-14), the IC50 is 1570 nM.

The same test, now with this note: inhibition of PD-1-Ig binding to PD-L1-TVMV-His; value given as range class; read-out: HTRF IC50.
As to `CCCCCCCCCCCCCCCCNC(=O)[C@H](CC(=O)O)NC(=O)CCCCCCCCCCNC(=O)[C@@H]1CSCC(=O)N[C@@H](Cc2ccc(O)cc2)C(=O)N(C)[C@@H](C)C(=O)N[C@@H](CC(N)=O)C(=O)N2CCC[C@H]2C(=O)N[C@@H](Cc2cnc[nH]2)C(=O)N[C@@H](CC(C)C)C(=O)N2C[C@H](O)C[C@H]2C(=O)N[C@@H](Cc2c[nH]c3ccccc23)C(=O)N[C@@H](CO)C(=O)N[C@@H](Cc2c[nH]c3ccccc23)C(=O)N(C)[C@@H](CCCC)C(=O)N(C)[C@@H](CCCC)C(=O)N[C@@H](CCCNC(=N)N)C(=O)N1` [Example 11119], the IC50 was 100 to 1600 nM. `C#CC[C@H](NC(=O)CNC(=O)[C@@H]1CSCC(=O)N[C@@H](Cc2ccc(O)cc2)C(=O)N(C)[C@@H](C)C(=O)N[C@@H](CC(N)=O)C(=O)N2CCC[C@H]2C(=O)N[C@@H](CN)C(=O)N[C@@H](CC(C)C)C(=O)N2C[C@H](O)C[C@H]2C(=O)N[C@@H](Cc2c[nH]c3ccccc23)C(=O)N[C@@H](CCN)C(=O)N[C@@H](Cc2cn(CC(=O)O)c3ccccc23)C(=O)N(C)[C@@H](CCCC)C(=O)N(C)[C@@H](CCCC)C(=O)N[C@@H](CC(C)C)C(=O)N1)C(=O)O` [INT 1300V] ({CH2CO}-Y[NMeA]NP[Dap]L[Hyp]W[Dab][Trp(1-CH2COOH)][NMeNle][NMeNle]LCG[Pra]-OH; thioether N-14): the 50% inhibitory concentration (IC50) lay in the range of 10 to 99 nM. `CCCC[C@H]1C(=O)N(C)[C@@H](CCCC)C(=O)N[C@@H](CC(C)C)C(=O)N[C@H](C(=O)NCC(=O)N[C@@H](CC(=O)O)C(=O)NCC(=O)NCCCCCCCCCCCCC(=O)O)CSCC(=O)N[C@@H](Cc2ccc(O)cc2)C(=O)N(C)[C@@H](C)C(=O)N[C@@H](CC(N)=O)C(=O)N2CCC[C@H]2C(=O)N[C@@H](CN)C(=O)N[C@@H](CC(C)C)C(=O)N2C[C@H](O)C[C@H]2C(=O)N[C@@H](Cc2c[nH]c3ccccc23)C(=O)N[C@@H](CCN)C(=O)N[C@@H](Cc2cn(CC(=O)O)c3ccccc23)C(=O)N1C` [Example 11223] ({CH2CO}-Y[NMeA]NP[Dap]L[Hyp]W[Dab][Trp(1-CH2COOH)][NMeNle][NMeNle]LCGDG-{NH(CH2)12COOH}; thioether N-14): the IC50 lay in the range of 10 to 99 nM. Still for that read-out and setting: under `CCCC[C@H]1C(=O)N(C)[C@@H](CCCC)C(=O)N[C@@H](CC(C)C)C(=O)N[C@H](C(=O)NCC(=O)NCC(=O)N[C@@H](CC(=O)O)C(=O)NCCCCCCCCCCCCC(=O)O)CSCC(=O)N[C@@H](Cc2ccc(O)cc2)C(=O)N(C)[C@@H](C)C(=O)N[C@@H](CC(=O)O)C(=O)N2CCC[C@H]2C(=O)N[C@@H](Cc2cnc[nH]2)C(=O)N[C@@H](CCCCN)C(=O)N2C[C@H](O)C[C@H]2C(=O)N[C@@H](Cc2c[nH]c3ccccc23)C(=O)N[C@@H](CCCCN)C(=O)N[C@@H](Cc2cn(CC(=O)O)c3ccccc23)C(=O)N1C` [Example 11220] ({CH2CO}-Y[NMeA]DPHK[Hyp]WK[Trp(1-CH2COOH)][NMeNle][NMeNle]LCGGD-{NH(CH2)12COOH}; thioether N-14) stands 10 to 99 nM. On the same count and under the same terms, under `CCCCCCCCCCCCCCCC(=O)N[C@@H](CCn1cc(C[C@H](NC(=O)CNC(=O)[C@@H]2CSCC(=O)N[C@@H](Cc3ccc(O)cc3)C(=O)N(C)[C@@H](C)C(=O)N[C@@H](CC(=O)O)C(=O)N3CCC[C@H]3C(=O)N[C@@H](Cc3c[nH]cn3)C(=O)N[C@@H](CCC(N)=O)C(=O)N3C[C@H](O)C[C@H]3C(=O)N[C@@H](Cc3c[nH]c4ccccc34)C(=O)N[C@@H](CO)C(=O)N[C@@H](Cc3c[nH]c4ccccc34)C(=O)N(C)[C@@H](CCCC)C(=O)N(C)[C@@H](CCCC)C(=O)N[C@@H](CCC(=O)O)C(=O)N2)C(=O)NCC(N)=O)nn1)C(=O)O` [Example 14062] stands 10 to 99 nM; under `CCCC[C@H]1C(=O)N(C)[C@@H](CCCC)C(=O)N[C@@H](CC(C)C)C(=O)N[C@H](C(=O)NCC(=O)N[C@@H](CC(=O)NCCC(=O)NCC[C@H](NC(=O)CCCCCCCCCCCCCCCCC(=O)O)C(=O)O)C(=O)O)CSCC(=O)N[C@@H](Cc2ccc(O)cc2)C(=O)N2CCCC[C@H]2C(=O)N[C@@H](CC(N)=O)C(=O)N2CCC[C@H]2C(=O)N[C@@H](CN)C(=O)N[C@@H](CC(C)C)C(=O)N2C[C@H](O)C[C@H]2C(=O)N[C@@H](Cc2c[nH]c3ccccc23)C(=O)N[C@@H](CCN)C(=O)N[C@@H](Cc2cn(CC(=O)O)c3ccccc23)C(=O)N1C` [Example 13160] ({CH2CO}-Y[Pip]NP[Dap]L[Hyp]W[Dab][Trp(1-CH2COOH)][NMeNle][NMeNle]LCG[βAsp][βAla]-X9; thioether N-14), 0.3 to 9.9 nM. The same measure, in the same setting: under `CCCC[C@H]1C(=O)N(C)[C@@H](CCCC)C(=O)N[C@@H](CC(C)C)C(=O)N[C@H](C(=O)NCC(=O)NCC(=O)N[C@@H](Cc2cn(CC[C@H](NC(=O)CCCCCCCCCCCCCCCCC(=O)O)C(=O)O)nn2)C(=O)O)CSCC(=O)N[C@@H](Cc2ccc(O)cc2)C(=O)N(C)[C@@H](C)C(=O)N[C@@H](CC(N)=O)C(=O)N2CCC[C@H]2C(=O)N[C@@H](CN)C(=O)N[C@@H](CC(C)C)C(=O)N2C[C@H](O)C[C@H]2C(=O)N[C@@H](Cc2c[nH]c3ccccc23)C(=O)N[C@@H](CCN)C(=O)N[C@@H](Cc2cn(CC(=O)O)c3ccccc23)C(=O)N1C` [Example 13122] stands 100 to 1600 nM; under `C#CC[C@H](NC(=O)CNC(=O)[C@@H]1CSCC(=O)N[C@@H](Cc2ccc(O)cc2)C(=O)N(C)[C@@H](C)C(=O)N[C@@H](CC(N)=O)C(=O)N2CCC[C@H]2C(=O)N[C@@H](CN)C(=O)N[C@@H](CC(C)C)C(=O)N2C[C@H](O)C[C@H]2C(=O)N[C@@H](Cc2c[nH]c3ccccc23)C(=O)N[C@@H](CO)C(=O)N[C@@H](Cc2cn(CC(=O)O)c3ccccc23)C(=O)N(C)[C@@H](CCCC)C(=O)N(C)[C@@H](CCCC)C(=O)N[C@@H](CCC(=O)O)C(=O)N1)C(N)=O` [INT 1400I, ClAc-Tyr-mAla-Asn-Pro-Dap-Leu-Hyp-Trp-Ser-[(S)-2-amino-3-(1-(carboxymethyl)-1H-indol-3-yl)propanoic acid]-mNle-mNle-E-Cys-Gly-[(S)-propargylglycine]] ({CH2CO}-Y[NMeA]NP[Dap]L[Hyp]WS[Trp(1-CH2COOH)][NMeNle][NMeNle]ECG[Pra]-NH2; thioether N-14), 10 to 99 nM; under `CCCCCCCCCCCCCC(=O)NCCCC[C@H](NC(=O)CCOCCOCCOCCOCCOCCOCCNC(=O)CNC(=O)C1CSCC(=O)N[C@@H](Cc2ccc(O)cc2)C(=O)N(C)[C@@H](C)C(=O)N[C@@H](CC(=O)O)C(=O)N2CCC[C@H]2C(=O)N[C@@H](Cc2cnc[nH]2)C(=O)N[C@@H](CC(C)C)C(=O)N2C[C@H](O)C[C@H]2C(=O)N[C@@H](Cc2c[nH]c3ccccc23)C(=O)N[C@@H](CO)C(=O)N[C@@H](Cc2c[nH]c3ccccc23)C(=O)N(C)[C@@H](CCCC)C(=O)N(C)[C@@H](CCCC)C(=O)N[C@@H](CCCNC(=N)N)C(=O)N1)C(N)=O` (stereo partly shown) [Example 11015] ({CH2CO}-Y[NMeA]DPHL[Hyp]WSW[NMeNle][NMeNle]R[ξC]G[PEG6]K(Myristoyl)-NH2; thioether N-14), 10 to 99 nM.

On to `CCCC[C@H]1C(=O)N(C)[C@@H](CCCC)C(=O)N[C@@H](CCCNC(=N)N)C(=O)N[C@H](C(=O)NCC(=O)NCC(=O)N[C@@H](CC(=O)O)C(=O)N[C@@H](CCCCNC(=O)CCCCCCCCCCCCCCC(=O)O)C(N)=O)CSCC(=O)N[C@@H](Cc2ccc(O)cc2)C(=O)N(C)[C@@H](C)C(=O)N[C@@H](CC(=O)O)C(=O)N2CCC[C@H]2C(=O)N[C@@H](Cc2cnc[nH]2)C(=O)N[C@@H](CC(C)C)C(=O)N2C[C@H](O)C[C@H]2C(=O)N[C@@H](Cc2c[nH]c3ccccc23)C(=O)N[C@@H](CO)C(=O)N[C@@H](Cc2c[nH]c3ccccc23)C(=O)N1C` [Example 11126] ({CH2CO}-Y[NMeA]DPHL[Hyp]WSW[NMeNle][NMeNle]RCGGDK(C16 diacid)-NH2; thioether N-14), for which the half-maximal inhibitory concentration (IC50) fell in the range of 10 to 99 nM. Still for that read-out and setting: the figure for `CCCC[C@H]1C(=O)N(C)[C@@H](CCCC)C(=O)N[C@@H](CC(C)C)C(=O)N[C@H](C(=O)NCC(=O)NCC(=O)NCC(=O)NCCCCCCCCCCC(=O)O)CSCC(=O)N[C@@H](Cc2ccc(O)cc2)C(=O)N(C)[C@@H](C)C(=O)N[C@@H](CC(N)=O)C(=O)N2CCC[C@H]2C(=O)N[C@@H](Cc2cnc[nH]2)C(=O)N[C@@H](CCC(=O)O)C(=O)N2C[C@H](O)C[C@H]2C(=O)N[C@@H](Cc2c[nH]c3ccccc23)C(=O)N[C@@H](CCN)C(=O)N[C@@H](Cc2cn(CC(=O)O)c3ccccc23)C(=O)N1C` [Example 11079] ({CH2CO}-Y[NMeA]NPHE[Hyp]W[Dab][Trp(1-CH2COOH)][NMeNle][NMeNle]LCGGG[Aun]-OH; thioether N-14) is 10 to 99 nM; for `CCCC[C@H]1C(=O)N(C)[C@@H](CCCC)C(=O)N[C@@H](CCC(=O)O)C(=O)N[C@H](C(=O)NCC(=O)N[C@@H](Cc2cn(CC[C@H](NC(=O)CCCCCCCCCCCCCCC(=O)O)C(=O)O)nn2)C(=O)N[C@@H](CC(=O)O)C(N)=O)CSCC(=O)N[C@@H](Cc2ccc(O)cc2)C(=O)N(C)[C@@H](C)C(=O)N[C@@H](CC(=O)O)C(=O)N2CCC[C@H]2C(=O)N[C@@H](Cc2c[nH]cn2)C(=O)N[C@@H](CCCCN)C(=O)N2C[C@H](O)C[C@H]2C(=O)N[C@@H](Cc2c[nH]c3ccccc23)C(=O)N[C@@H](CCCCN)C(=O)N[C@@H](Cc2c[nH]c3ccccc23)C(=O)N1C` [Example 14065] it is 10 to 99 nM.
